The target in assay [1] is T1, Cbl-b (Homo sapiens, UniProt Q13191).
T1 construct: Cbl-b-HiBit KI Jurkat Cells were purchased from Promega; host or cells: Cbl-b-HiBiT knock-in Jurkat cells
The assay is described as follows: Cbl-b Degradation Method A (FACS, anti-Cbl-b antibody staining). Format: cell-based. The note with it: Cbl-b-HiBit KI Jurkat Cells, incubated at least 20 hours; for DC50: half maximal degradation, read-out: Cbl-b Degredation Method A IC50; for Dmax: Jurkat, maximum degradation observed, read-out: Cbl-b Degredation Method A Dmax (%). The protocol:
Cbl-b Degradation Method A
Cbl-b-HiBit KI Jurkat Cells were purchased from Promega, and cell media consisted of RPMI 1640 with 10% FBS and 1% pen/strep. The cells were counted, measured for viability, and 100 μL of the cell solution was into 96 well flat bottom plates at a ratio of 290,000 cells per 100 μL. Compounds were dissolved in DMSO to make a 10 mM stock solution, which was diluted with cell media. 100 μL of the diluted compound mixture was added to the wells. The plate was incubated for at least 20 hours at 37° C. and 5% CO2. After incubation, the plate was shaken at 700-750 RMP for 15-30 minutes to ensure cells were removed from the wells. The wells were transferred to a 96-well v-bottom plate and spun for 2200 RPM for 3 minutes. The supernatant was removed, cells re-suspended in 100 μL of the fixative, and subsequently incubated at room temperature for 15 minutes. Afterwards, 150 μL of DPBS was added to each well, and the cells were centrifuged at 2500 RPM for 3 minutes. The supernatant was removed and the plate was chilled on ice for 2-3 minutes. While still on the ice, 100 μL of Perm III was added to each well, the wells mixed, and subsequently left on the ice for another 15 minutes. Afterwards, the plate was removed from the ice, 150 μL of DBPS was added to each well, and the cells centrifuged at 2700 RPM for 3 minutes. The supernatant was removed, and an additional 200 μL of was DPBS was added to each well, followed by centrifuging at 2700 RPM for 3 minutes, after which the supernatant was removed. The anti-Cbl-b antibody was diluted 1:200 in 1× Perm Wash buffer and 50 μL of the antibody mixture was added to each well and mixed. After addition, the plate was incubated for 35-45 minutes at room temperature. After incubation, 200 μL of DPBS was added to each wells, and the plate centrifuged at 2700 RPM for 3 minutes, followed by the removal of the supernatant. The washing step was repeated by adding 200 μL of DPBS to each wells followed by centrifuge at 2700 RPM for 3 minutes and removal of the supernatant. The a-Rabbit-AF488 antibody was diluted 1:1000 in Perm Wash buffer, 50 μL of the dilution added to each well, and mixed. After mixing, the plate was incubated for 30 minutes at room temperature in the dark. Subsequently, the supernatant was removed, and 200 μL of DBPS added to the cells, which were then centrifuged at 2900 RPM for 4 minutes. The supernatant was removed, and an additional 95 μL of DBPS was added to the wells and mixed. The cells were then transferred to a round bottom polypropylene plate and analyzed using FACS with the parameters below:
The concentration of an exemplary compound that leads to half maximal degradation (DC50) as well as the maximum degradation observed (Dmax, conventionally expressed as a percentage of control) is shown below in Table 2.
(In general: HiBiT is a short tag that completes a luciferase, so light tracks the accessible tagged protein.)

In assay [2] the target is T1, Cbl-b. The assay is described as follows: Cbl-b Degradation Method B (Nano-Glo HiBiT lytic detection). The note with it: Cbl-b-HiBit KI Jurkat Cells, incubated at least 6-24 hours; half maximal degradation; read-out: Cbl-b Degredation Method B IC50. The class given is cell-based. In a few lines: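 Cbl-b-HiBiT knock-in Jurkat cells (20,000/well) were treated after ~24 h plating with an 11-point 1:3 series for 6-24 h at 37° C. Remaining Cbl-b measured by Nano-Glo HiBiT lytic luminescence. DC50 and Dmax expressed as % of control.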

The structures appear in SMILES notation.

Experimental findings from patent publication US20260184710A1, “CASITAS B-LINEAGE LYMPHOMA PROTOONCOGENE B (CBL-B) DEGRADING COMPOUNDS AND ASSOCIATED METHODS OF USE” (Arvinas Operations, Inc., priority 2022, published 2026) are described below.

T1 sequence (Q13191 whole entry): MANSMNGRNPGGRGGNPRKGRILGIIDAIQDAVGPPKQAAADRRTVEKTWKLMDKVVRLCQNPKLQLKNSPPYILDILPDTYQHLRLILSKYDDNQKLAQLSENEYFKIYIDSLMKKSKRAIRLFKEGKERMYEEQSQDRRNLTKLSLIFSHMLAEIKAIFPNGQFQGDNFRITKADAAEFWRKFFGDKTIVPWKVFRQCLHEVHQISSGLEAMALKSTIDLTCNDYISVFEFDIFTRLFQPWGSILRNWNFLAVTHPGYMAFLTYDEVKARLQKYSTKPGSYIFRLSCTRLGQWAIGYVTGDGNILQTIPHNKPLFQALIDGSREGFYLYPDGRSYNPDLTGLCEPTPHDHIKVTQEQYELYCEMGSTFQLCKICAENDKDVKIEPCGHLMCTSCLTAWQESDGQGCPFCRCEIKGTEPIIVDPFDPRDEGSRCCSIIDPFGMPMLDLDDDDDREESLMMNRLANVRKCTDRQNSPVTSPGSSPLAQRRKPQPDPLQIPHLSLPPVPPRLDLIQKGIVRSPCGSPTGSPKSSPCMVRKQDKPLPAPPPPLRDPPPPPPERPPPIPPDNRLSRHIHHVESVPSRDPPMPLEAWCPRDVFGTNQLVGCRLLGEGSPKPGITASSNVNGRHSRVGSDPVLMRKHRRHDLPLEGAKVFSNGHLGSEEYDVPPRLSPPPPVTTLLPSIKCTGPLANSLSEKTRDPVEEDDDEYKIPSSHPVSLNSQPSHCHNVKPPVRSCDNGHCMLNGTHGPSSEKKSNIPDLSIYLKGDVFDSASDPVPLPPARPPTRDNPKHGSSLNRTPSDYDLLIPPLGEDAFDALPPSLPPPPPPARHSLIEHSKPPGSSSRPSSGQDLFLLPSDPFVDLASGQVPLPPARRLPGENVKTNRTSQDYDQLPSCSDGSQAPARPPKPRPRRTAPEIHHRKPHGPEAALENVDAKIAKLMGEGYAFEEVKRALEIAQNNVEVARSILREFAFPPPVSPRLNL

The term Dmax denotes the greatest extent of degradation seen. As to `Cn1cnnc1CC1(c2cccc(N3Cc4c(cc(CN5CC6(CCN(C[C@H]7CC[C@H](OC8CCN(c9ccc%10c(c9F)CN(C9CCC(=O)NC9=O)C%10=O)CC8)CC7)CC6)C5)cc4C(F)(F)F)C3=O)c2)COC1` (stereo partly drawn) [Example 6, 3-[4-fluoro-1-oxo-5-(4-{[(1r, 4r)-4-[(2-{[2-(3-{3-[(4-methyl-4H-1,2,4-triazol-3-yl)methyl]oxetan-3-yl}phenyl)-3-oxo-7-(trifluoromethyl)-2,3-dihydro-1H-isoindol-5-yl]methyl}-2,7-diazaspiro[3.5]nonan-7-yl)methyl]cyclohexyl]oxy}piperidin-1-yl)-2,3-dihydro-1H-isoindol-2-yl]piperidine-2,6-dione], in assay [1], the DC50 is below 5 nM and the Dmax was above 70%.
For `Cn1cnnc1CC1(c2cccc(N3Cc4c(cc(N5CC6(CCN(C[C@H]7CC[C@H](OC8CCN(c9ccc%10c(c9F)CN(C9CCC(=O)NC9=O)C%10=O)CC8)CC7)CC6)C5)cc4C(F)(F)F)C3=O)c2)COC1` (stereo partly drawn) [Example 7, 3-[4-fluoro-1-oxo-5-(4-{[(1r, 4r)-4-({2-[2-(3-{3-[(4-methyl-4H-1,2,4-triazol-3-yl)methyl]oxetan-3-yl}phenyl)-3-oxo-7-(trifluoromethyl)-2,3-dihydro-1H-isoindol-5-yl]-2,7-diazaspiro [3.5]nonan-7-yl}methyl)cyclohexyl]oxy}piperidin-1-yl)-2,3-dihydro-1H-isoindol-2-yl]piperidine-2,6-dione], in that order: below 5 nM and above 70%.
For `Cn1cnnc1CC1(c2cccc(N3Cc4c(cc(CN5CC6(CCN(CC7CCN(c8ccc9c(c8F)CN(C8CCC(=O)NC8=O)C9=O)CC7)CC6)C5)cc4C(F)(F)F)C3=O)c2)COC1` (stereo not drawn) [Example 25, 3-(4-fluoro-5-{4-[(2-{[2-(3-{3-[(4-methyl-4H-1,2,4-triazol-3-yl)methyl]oxetan-3-yl}phenyl)-3-oxo-7-(trifluoromethyl)-2,3-dihydro-1H-isoindol-5-yl]methyl}-2,7-diazaspiro[3.5]nonan-7-yl)methyl]piperidin-1-yl}-1-oxo-2,3-dihydro-1H-isoindol-2-yl)piperidine-2,6-dione], in that order: 5 to 50 nM and below 35%.
For `Cn1cnnc1CC1(c2cccc(N3Cc4c(cc(CN5CCCC(N6CCC(CN7CCC(CN8CCN(c9ccc%10c(c9)C(=O)N(C9CCC(=O)NC9=O)C%10=O)CC8)CC7)CC6)C5)cc4C(F)(F)F)C3=O)c2)COC1` (stereo not drawn) [Example 109, 2-(2,6-dioxopiperidin-3-yl)-5-[4-({1-[(1′-{[2-(3-{3-[(4-methyl-4H-1,2,4-triazol-3-yl)methyl]oxetan-3-yl}phenyl)-3-oxo-7-(trifluoromethyl)-2,3-dihydro-1H-isoindol-5-yl]methyl}-[1,3′-bipiperidin]-4-yl)methyl]piperidin-4-yl}methyl)piperazin-1-yl]-2,3-dihydro-1H-isoindole-1,3-dione], in that order: below 5 nM and above 70%.
As for `Cn1cnnc1CC1(c2cccc(-n3cc4c(C(F)(F)F)cc(CN5CCC[C@H](CN6CCN(CC7CCN(c8ccc9c(c8F)CN(C8CCC(=O)NC8=O)C9=O)CC7)CC6(C)C)C5)cc4n3)c2)COC1` (stereo partly drawn) [Example 285, 3-(5-{4-[(3,3-dimethyl-4-{[(3S)-1-{[2-(3-{3-[(4-methyl-4H-1,2,4-triazol-3-yl)methyl]oxetan-3-yl}phenyl)-4-(trifluoromethyl)-2H-indazol-6-yl]methyl}piperidin-3-yl]methyl}piperazin-1-yl)methyl]piperidin-1-yl}-4-fluoro-1-oxo-2,3-dihydro-1H-isoindol-2-yl)piperidine-2,6-dione], the DC50 in assay [2] was above 500 nM.
For the molecule `CC1c2nc(N3CCC(CN4CCN(CC5CCN(Cc6cc7c(c(C(F)(F)F)c6)CN(c6cccc([C@]8(Cc9nncn9C)C[C@@H](C#N)C8)c6)C7=O)CC5)C(C)(C)C4)CC3)ccc2C(=O)N1C1CCC(=O)NC1=O` (stereo partly drawn) [Example 287, (1r,3r)-3-(3-{6-[(4-{[4-({1-[6-(2,6-dioxopiperidin-3-yl)-7-methyl-5-oxo-5H,6H,7H-pyrrolo[3,4-b]pyridin-2-yl]piperidin-4-yl}methyl)-2,2-dimethylpiperazin-1-yl]methyl}piperidin-1-yl)methyl]-1-oxo-4-(trifluoromethyl)-2,3-dihydro-1H-isoindol-2-yl}phenyl)-3-[(4-methyl-4H-1,2,4-triazol-3-yl)methyl]cyclobutane-1-carbonitrile], the DC50 in assay [2] is above 500 nM.
Same read-out and setting: to `CC(C)n1c(=O)n(C2CCC(=O)NC2=O)c2cccc(N3CCC(CN4CCN(C[C@H]5CCCN(Cc6cc7c(c(C(F)(F)F)c6)CN(c6cccc(C8(Cc9nncn9C)CC(C#N)C8)c6)C7=O)C5)C(C)(C)C4)CC3)c21` (stereo partly drawn) [Example 288, (1r*,3r*)-3-[3-(6-{[(3S)-3-{[4-({1-[1-(2,6-dioxopiperidin-3-yl)-2-oxo-3-(propan-2-yl)-2,3-dihydro-1H-1,3-benzodiazol-4-yl]piperidin-4-yl}methyl)-2,2-dimethylpiperazin-1-yl]methyl}piperidin-1-yl]methyl}-1-oxo-4-(trifluoromethyl)-2,3-dihydro-1H-isoindol-2-yl)phenyl]-3-[(4-methyl-4H-1,2,4-triazol-3-yl)methyl]cyclobutane-1-carbonitrile] belongs above 500 nM.
As for `CC(C)n1c(=O)n(C2CCC(=O)NC2=O)c2ccc(N3CCN(Cc4ccc(-c5cc6c(c(C(F)(F)F)c5)CN(c5cccc([C@]7(Cc8nncn8C)C[C@@H](C#N)C7)c5)C6=O)cc4)CC3)cc21` (stereo partly drawn) [Example 295, (1r,3r)-3-(3-{6-[4-({4-[1-(2,6-dioxopiperidin-3-yl)-2-oxo-3-(propan-2-yl)-2,3-dihydro-1H-1,3-benzodiazol-5-yl]piperazin-1-yl}methyl)phenyl]-1-oxo-4-(trifluoromethyl)-2,3-dihydro-1H-isoindol-2-yl}phenyl)-3-[(4-methyl-4H-1,2,4-triazol-3-yl)methyl]cyclobutane-1-carbonitrile], the DC50 in assay [2] is above 500 nM.
The same measure, in the same setting: the figure for `Cn1cnnc1CC1(c2cccc(-n3cc4c(C(F)(F)F)cc(CN5CCC[C@H](CN6CCC[C@@H](OC7CCN(c8ccc9c(c8F)CN(C8CCC(=O)NC8=O)C9=O)CC7)C6)C5)cc4n3)c2)COC1` (stereo partly drawn) [Example 297, 3-[4-fluoro-5-(4-{[(3R)-1-{[(3S)-1-{[2-(3-{3-[(4-methyl-4H-1,2,4-triazol-3-yl)methyl]oxetan-3-yl}phenyl)-4-(trifluoromethyl)-2H-indazol-6-yl]methyl}piperidin-3-yl]methyl}piperidin-3-yl]oxy}piperidin-1-yl)-1-oxo-2,3-dihydro-1H-isoindol-2-yl]piperidine-2,6-dione] is above 500 nM.
Turning to `Cn1cnnc1CC1(c2cccc(-n3cc4c(C(F)(F)F)cc(CN5CCC[C@@H](CN6CCC(CN7CCN(c8ccc9c(c8F)CN(C8CCC(=O)NC8=O)C9=O)CC7)CC6)C5)cc4n3)c2)COC1` (stereo partly drawn) [Example 298, 3-(4-fluoro-5-{4-[(1-{[(3S)-1-{[2-(3-{3-[(4-methyl-4H-1,2,4-triazol-3-yl)methyl]oxetan-3-yl}phenyl)-4-(trifluoromethyl)-2H-indazol-6-yl]methyl}piperidin-3-yl]methyl}piperidin-4-yl)methyl]piperazin-1-yl}-1-oxo-2,3-dihydro-1H-isoindol-2-yl)piperidine-2,6-dione], the DC50 in assay [2] is above 500 nM.
For the molecule `Cn1cnnc1CC1(c2cccc(-n3cc4c(C(F)(F)F)cc(CN5CCC(CN6CCC(CN7CCN(c8ccc9c(c8F)CN(C8CCC(=O)NC8=O)C9=O)CC7)CC6)CC5)cc4n3)c2)COC1` (stereo not drawn) [Example 299, 3-{4-fluoro-5-[4-({1-[(1-{[2-(3-{3-[(4-methyl-4H-1,2,4-triazol-3-yl)methyl]oxetan-3-yl}phenyl)-4-(trifluoromethyl)-2H-indazol-6-yl]methyl}piperidin-4-yl)methyl]piperidin-4-yl}methyl)piperazin-1-yl]-1-oxo-2,3-dihydro-1H-isoindol-2-yl}piperidine-2,6-dione], the DC50 in assay [2] was above 500 nM.
